Results reported in patent US20140120083A1, “TREATMENT OF CANCERS USING PI3 KINASE ISOFORM MODULATORS” (INFINITY PHARMACEUTICALS, INC., priority 2012, published 2014).

Legend:
Type in all cases: biochemical
PI3K δ = PI3K δ (Homo sapiens, UniProt O00329); test: In vitro IC50, PI3K δ; design: purchased Upstate
From the text: (§1) An exemplary system is PI 3-Kinase (human) HTRF™ Assay from Upstate.

PI3K α = target: T1, PI3K α (Homo sapiens, UniProt P42336); test: In vitro IC50, PI3K α
T1 construct: purchased Upstate
T1 sequence (P42336 whole entry): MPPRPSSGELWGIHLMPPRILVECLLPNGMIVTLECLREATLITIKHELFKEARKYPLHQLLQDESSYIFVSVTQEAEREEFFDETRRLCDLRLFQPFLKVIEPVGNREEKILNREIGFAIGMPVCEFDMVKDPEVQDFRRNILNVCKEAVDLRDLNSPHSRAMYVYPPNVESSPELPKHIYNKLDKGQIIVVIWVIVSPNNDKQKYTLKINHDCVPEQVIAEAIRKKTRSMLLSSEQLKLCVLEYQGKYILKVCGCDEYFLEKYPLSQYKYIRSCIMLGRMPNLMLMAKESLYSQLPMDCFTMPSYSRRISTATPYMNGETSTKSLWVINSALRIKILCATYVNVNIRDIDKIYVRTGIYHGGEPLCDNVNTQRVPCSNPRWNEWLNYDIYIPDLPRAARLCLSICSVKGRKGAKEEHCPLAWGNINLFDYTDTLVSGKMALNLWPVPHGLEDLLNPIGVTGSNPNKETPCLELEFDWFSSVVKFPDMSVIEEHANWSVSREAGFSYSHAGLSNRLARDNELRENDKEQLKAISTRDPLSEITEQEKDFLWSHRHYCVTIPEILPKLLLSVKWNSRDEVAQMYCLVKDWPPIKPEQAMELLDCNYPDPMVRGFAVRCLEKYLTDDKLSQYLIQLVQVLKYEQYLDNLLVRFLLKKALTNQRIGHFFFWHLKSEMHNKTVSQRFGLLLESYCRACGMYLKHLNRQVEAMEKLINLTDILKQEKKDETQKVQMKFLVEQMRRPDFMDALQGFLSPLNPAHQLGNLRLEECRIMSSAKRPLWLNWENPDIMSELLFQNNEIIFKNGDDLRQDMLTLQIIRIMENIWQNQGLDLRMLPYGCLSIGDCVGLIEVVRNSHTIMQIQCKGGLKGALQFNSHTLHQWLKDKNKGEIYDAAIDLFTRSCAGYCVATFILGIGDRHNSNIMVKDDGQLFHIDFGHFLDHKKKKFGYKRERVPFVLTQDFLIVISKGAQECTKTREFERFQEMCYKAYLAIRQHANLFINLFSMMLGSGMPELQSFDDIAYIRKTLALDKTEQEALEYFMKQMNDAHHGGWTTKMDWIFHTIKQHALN
T1 sequence (P27986 whole entry partner): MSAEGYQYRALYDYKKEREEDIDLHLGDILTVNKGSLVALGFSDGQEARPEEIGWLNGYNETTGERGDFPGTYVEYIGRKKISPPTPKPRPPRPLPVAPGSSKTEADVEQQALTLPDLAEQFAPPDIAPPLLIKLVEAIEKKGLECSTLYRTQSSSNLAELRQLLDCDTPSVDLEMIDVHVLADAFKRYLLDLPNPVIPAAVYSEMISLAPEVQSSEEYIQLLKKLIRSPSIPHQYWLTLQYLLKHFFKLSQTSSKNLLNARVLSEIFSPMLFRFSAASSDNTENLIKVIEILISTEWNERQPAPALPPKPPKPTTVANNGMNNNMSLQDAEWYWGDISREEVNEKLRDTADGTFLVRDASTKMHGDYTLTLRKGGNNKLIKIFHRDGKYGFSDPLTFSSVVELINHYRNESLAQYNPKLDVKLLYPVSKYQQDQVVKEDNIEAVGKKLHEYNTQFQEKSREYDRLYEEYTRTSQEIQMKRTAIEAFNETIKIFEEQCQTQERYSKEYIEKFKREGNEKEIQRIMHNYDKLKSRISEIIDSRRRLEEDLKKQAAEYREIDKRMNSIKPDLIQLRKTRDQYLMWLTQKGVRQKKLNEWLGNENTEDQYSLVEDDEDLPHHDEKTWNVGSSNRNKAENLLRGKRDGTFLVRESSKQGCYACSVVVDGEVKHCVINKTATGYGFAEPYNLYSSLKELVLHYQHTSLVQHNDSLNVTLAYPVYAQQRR
From the text: as §1

PI3K γ = target: T2, PI3K γ (Homo sapiens, UniProt P48736); test: In vitro IC50, PI3K γ
T2 construct: purchased Sigma
T2 sequence (P48736 whole entry): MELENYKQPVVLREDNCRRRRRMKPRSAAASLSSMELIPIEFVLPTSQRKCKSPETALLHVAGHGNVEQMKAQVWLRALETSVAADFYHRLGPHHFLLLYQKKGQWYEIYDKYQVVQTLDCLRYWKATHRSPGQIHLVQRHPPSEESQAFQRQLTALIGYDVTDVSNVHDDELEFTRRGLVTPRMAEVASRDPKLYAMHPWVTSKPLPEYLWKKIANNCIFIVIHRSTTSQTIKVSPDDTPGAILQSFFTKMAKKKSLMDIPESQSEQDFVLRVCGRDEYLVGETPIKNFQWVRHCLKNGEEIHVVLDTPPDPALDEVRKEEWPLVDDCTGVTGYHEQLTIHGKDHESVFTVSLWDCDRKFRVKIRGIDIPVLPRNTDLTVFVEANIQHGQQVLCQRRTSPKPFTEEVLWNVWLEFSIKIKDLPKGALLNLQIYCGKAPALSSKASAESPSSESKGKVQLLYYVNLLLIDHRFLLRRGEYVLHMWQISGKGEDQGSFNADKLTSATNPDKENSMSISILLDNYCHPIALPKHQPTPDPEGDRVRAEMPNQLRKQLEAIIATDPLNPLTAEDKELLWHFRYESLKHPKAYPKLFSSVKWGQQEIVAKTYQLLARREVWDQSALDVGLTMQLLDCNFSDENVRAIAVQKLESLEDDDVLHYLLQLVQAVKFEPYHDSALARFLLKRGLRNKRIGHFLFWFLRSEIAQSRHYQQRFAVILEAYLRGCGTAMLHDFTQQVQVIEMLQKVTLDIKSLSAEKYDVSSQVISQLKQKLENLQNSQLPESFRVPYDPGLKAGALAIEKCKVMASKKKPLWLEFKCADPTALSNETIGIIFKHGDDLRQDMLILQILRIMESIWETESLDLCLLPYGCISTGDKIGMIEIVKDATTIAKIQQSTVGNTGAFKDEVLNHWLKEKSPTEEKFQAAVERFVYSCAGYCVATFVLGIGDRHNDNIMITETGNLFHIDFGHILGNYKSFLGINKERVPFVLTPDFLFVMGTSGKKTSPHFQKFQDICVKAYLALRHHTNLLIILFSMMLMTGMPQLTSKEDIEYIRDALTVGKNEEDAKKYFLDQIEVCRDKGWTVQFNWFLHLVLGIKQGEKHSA
From the text: as §1

PI3K δ, sequence (O00329 whole entry): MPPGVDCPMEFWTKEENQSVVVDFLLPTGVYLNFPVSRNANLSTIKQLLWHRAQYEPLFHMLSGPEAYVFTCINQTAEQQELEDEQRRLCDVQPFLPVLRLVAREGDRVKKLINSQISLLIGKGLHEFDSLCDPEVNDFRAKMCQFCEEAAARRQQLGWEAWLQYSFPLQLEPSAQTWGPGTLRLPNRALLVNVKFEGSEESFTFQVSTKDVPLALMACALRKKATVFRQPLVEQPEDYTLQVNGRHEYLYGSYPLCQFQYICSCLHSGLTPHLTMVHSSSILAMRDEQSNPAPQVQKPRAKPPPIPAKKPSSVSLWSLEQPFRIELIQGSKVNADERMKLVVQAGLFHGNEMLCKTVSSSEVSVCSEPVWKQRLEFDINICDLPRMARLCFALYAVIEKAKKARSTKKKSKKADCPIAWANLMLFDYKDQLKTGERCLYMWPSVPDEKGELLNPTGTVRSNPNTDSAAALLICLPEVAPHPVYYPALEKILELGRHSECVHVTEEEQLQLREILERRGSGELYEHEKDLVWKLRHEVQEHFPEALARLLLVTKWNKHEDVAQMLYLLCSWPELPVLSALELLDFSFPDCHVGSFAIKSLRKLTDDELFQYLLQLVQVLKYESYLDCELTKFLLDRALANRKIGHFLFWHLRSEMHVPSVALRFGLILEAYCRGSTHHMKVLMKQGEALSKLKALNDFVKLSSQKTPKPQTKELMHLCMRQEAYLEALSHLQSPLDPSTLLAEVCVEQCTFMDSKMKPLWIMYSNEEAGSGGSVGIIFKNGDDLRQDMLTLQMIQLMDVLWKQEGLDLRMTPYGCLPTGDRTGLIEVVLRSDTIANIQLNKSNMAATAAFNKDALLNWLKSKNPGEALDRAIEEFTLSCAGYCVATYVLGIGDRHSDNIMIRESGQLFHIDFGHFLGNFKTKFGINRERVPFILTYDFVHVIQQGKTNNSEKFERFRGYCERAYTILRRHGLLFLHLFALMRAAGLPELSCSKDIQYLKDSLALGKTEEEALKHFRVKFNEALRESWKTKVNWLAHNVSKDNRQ
PI3K δ, sequence (P27986 whole entry partner): as the sequence (P27986 whole entry partner) above

IC50 (PI3K δ) [nM]	IC50 (PI3K α) [nM]	IC50 (PI3K γ) [nM]	Structure (SMILES)
< 100			CC(C)n1c(Cn2nc(-c3cccc(O)c3)c3c(N)ncnc32)cc2ccccc2c1=O [Compound 135]
< 1000	> 10000		Cc1ccccc1-n1c(Cn2nc(C#C[C@@H](C)O)c3c(N)ncnc32)cc2ccccc2c1=O [Compound 32]
< 10000			CC(C)n1c(Cn2nc(I)c3c(N)ncnc32)cc2cccc(F)c2c1=O [Compound 117]
< 1000		< 1000	Cc1cccc2cc(Cn3nc(-c4ccc5nc(N)oc5c4)c4c(N)ncnc43)n(-c3ccccc3)c(=O)c12 [Compound 236]
< 100			CC(C)n1c(Cn2nc(-c3cc(O)cc(F)c3)c3c(N)ncnc32)cc2cccc(F)c2c1=O [Compound 134]
< 1000	> 10000	< 100	COc1ccc(-c2nn(Cc3cc4cccc(C)c4c(=O)n3-c3ccccc3C)c3ncnc(N)c23)cc1 [Compound 45]
< 100			CC(C)n1c(Cn2nc(-c3cccc(O)c3)c3c(N)ncnc32)cc2cccc(Cl)c2c1=O [Compound 137]
< 100		< 10000	CCc1nn(Cc2cc3cccc(C)c3c(=O)n2-c2ccccc2)c2ncnc(N)c12 [Compound 303]
< 1000	> 10000	< 10000	Cc1ccccc1-n1c(Cn2nc(CO)c3c(N)ncnc32)cc2cccc(C)c2c1=O [Compound 313]
< 1000	> 10000	< 10000	Cc1cccnc1-n1c(Cn2nc(Br)c3c(N)ncnc32)cc2cccc(C)c2c1=O [Compound 17]
< 1000	> 10000	< 1000	COc1ccc(-c2nn(Cc3cc4cccc(C)c4c(=O)n3-c3ccccc3F)c3ncnc(N)c23)cc1OC [Compound 47]
< 100		< 100	Cc1cccc2cc([C@H](C)Nc3ncnc4[nH]cnc34)n(-c3ccccc3)c(=O)c12 [Compound 196]
< 1000			CC(Nc1ncnc2[nH]cnc12)c1cc2ccccc2c(=O)n1C1CCN(C)CC1 (stereo not shown) [Compound 225]
< 100	> 10000	< 1000	Cc1ccccc1-n1c(Cn2nc(Cl)c3c(N)ncnc32)cc2cccc(C)c2c1=O [Compound 20]
< 100		> 10000	Cc1cccc2cc(C(C)Nc3ncnc4[nH]cnc34)n(CCN3CCCC3)c(=O)c12 (stereo not shown) [Compound 233]
< 100	< 10000	< 100	Cc1cccc2cc([C@H](C)Nc3nc(F)nc4[nH]cnc34)n(-c3ccccc3)c(=O)c12 [Compound 245]
< 1000	> 10000	< 1000	Cc1ccccc1-n1c(Cn2nc(-c3ccc(Cl)cc3)c3c(N)ncnc32)cc2cccc(C)c2c1=O [Compound 49]
< 100		< 100	Cc1cccc2cc(Cn3nc(-c4ccc5nc(N)[nH]c5c4)c4c(N)ncnc43)n(-c3ccccc3)c(=O)c12 [Compound 302]
< 100	> 10000	< 1000	Cc1ccccc1-n1c(Cn2nc(-c3cccc(O)c3)c3c(N)ncnc32)cc2ccccc2c1=O [Compound 51]
< 100			Cc1cccc2cc(Cn3nc(-c4cc(O)cc(F)c4)c4c(N)ncnc43)n(C)c(=O)c12 [Compound 125]

IC50 (PI3K δ) [nM]	IC50 (PI3K α) [nM]	IC50 (PI3K γ) [nM]	Structure (SMILES)
< 100		< 100	Cc1ccccc1-n1c(Cn2nc(C(F)F)c3c(N)ncnc32)cc2cccc(C)c2c1=O [Compound 306]
< 100	> 10000	< 100	Cc1ccccc1-n1c(Cn2nc(-c3cnc4[nH]ccc4c3)c3c(N)ncnc32)cc2cccc(C)c2c1=O [Compound 48]
< 100	> 10000	< 100	Cc1ccccc1-n1c(Cn2nc(Br)c3c(N)ncnc32)cc2cccc(C)c2c1=O [Compound 19]
< 1000	> 10000	< 10000	Cc1cccc2cc([C@H](C)Nc3ncnc4[nH]ncc34)n(-c3ccccc3)c(=O)c12 [Compound 258]
< 1000	> 10000	< 1000	Cc1cccnc1-n1c(Cn2nc(I)c3c(N)ncnc32)cc2cccc(C)c2c1=O [Compound 15]
> 10000	> 10000	< 10000	Cc1cccc2cc([C@H](C)NC(=O)c3cnn4ccccc34)n(-c3ccccc3)c(=O)c12 [Compound 241]
< 100			Nc1ncnc2c1c(I)nn2Cc1cc2cccc(Cl)c2c(=O)n1C1CC1 [Compound 139]
< 100			Cc1cccc2cc(Cn3nc(-c4cc(O)cc(F)c4)c4c(N)ncnc43)n(C3CCOCC3)c(=O)c12 [Compound 128]
< 100			Cc1cccc2cc(Cn3nc(-c4cccc(O)c4)c4c(N)ncnc43)n(C)c(=O)c12 [Compound 124]
< 100		< 1000	Cc1cccc2cc(C(C)Nc3ncnc4[nH]cnc34)n(-c3cccc(F)c3)c(=O)c12 (stereo not shown) [Compound 229]
< 100	> 10000	< 100	Cc1ccccc1-n1c(Cn2nc(-c3ccc4cc[nH]c4c3)c3c(N)ncnc32)cc2cccc(C)c2c1=O [Compound 50]
> 10000	> 10000	> 10000	Cc1cccc2cc(Cn3nc(C(C)(C)O)c4c(N)ncnc43)n(-c3ccccc3)c(=O)c12 [Compound 318]
< 10000			Nc1ncnc2c1c(I)nn2Cc1cc2cccc(F)c2c(=O)n1-c1ccccc1F [Compound 132]
< 100			CC(C)n1c(Cn2nc(-c3cc(O)cc(F)c3)c3c(N)ncnc32)cc2ccccc2c1=O [Compound 136]
< 100			Nc1ncnc2c1c(-c1cccc(O)c1)nn2Cc1cc2cccc(Cl)c2c(=O)n1C1CC1 [Compound 141]
< 100	> 10000	< 100	Cc1ccccc1-n1c(Cn2nc(-c3ccc(O)c(F)c3)c3c(N)ncnc32)cc2cccc(C)c2c1=O [Compound 30]
< 100		< 100	Cc1cccc2cc([C@H](C)Nc3ncnc4[nH]cnc34)n(C(C)C)c(=O)c12 [Compound 230]
< 100		< 100	Cc1cccc2cc(C(C)Nc3ncnc4[nH]cnc34)n(C3CCCC3)c(=O)c12 (stereo not shown) [Compound 231]
< 10000	> 10000	< 10000	Cc1cccc2cc([C@H](C)Nc3c(C#N)cnc4ccccc34)n(-c3ccccc3)c(=O)c12 [Compound 246]
< 10000			Cc1ccccc1-n1c(Cn2nc(-c3ccc(CN)cc3)c3c(N)ncnc32)cc2cccc(C)c2c1=O [Compound 118]

IC50 (PI3K δ) [nM]	IC50 (PI3K α) [nM]	IC50 (PI3K γ) [nM]	Structure (SMILES)
< 100		< 1000	Cc1cccc2cc(C(C)Nc3ncnc4[nH]cnc34)n(C3CCOCC3)c(=O)c12 (stereo not shown) [Compound 234]
< 10000			CNC(=O)c1cccc(-c2nn(Cc3cc4cccc(C)c4c(=O)n3-c3ccccc3C)c3ncnc(N)c23)c1 [Compound 120]
< 100	< 100	< 100	CNC(=O)Nc1nc2ccc(-c3nn(Cc4cc5cccc(C)c5c(=O)n4-c4ccccc4C)c4ncnc(N)c34)cc2s1 [Compound 148]
< 1000			Nc1ncnc2c1c(-c1cccc(O)c1)nn2Cc1cc2cccc(F)c2c(=O)n1-c1ccccc1F [Compound 143]
> 10000	> 10000	> 10000	COCc1nn(Cc2cc3cccc(C)c3c(=O)n2-c2ccccc2C)c2ncnc(N)c12 [Compound 314]
> 10000		> 10000	Cc1cccc2cc([C@@H](C)Nc3ncnc4[nH]cnc34)n(C3CC3)c(=O)c12 [Compound 199]
< 100			Nc1ncnc2c1c(-c1cc(O)cc(F)c1)nn2Cc1cc2cccc(F)c2c(=O)n1-c1ccccc1F [Compound 144]
< 1000	> 10000	< 100	Cc1ccccc1-n1c(Cn2nc(I)c3c(N)ncnc32)cc2ccccc2c1=O [Compound 31]
< 100		< 1000	C=Cc1nn(Cc2cc3cccc(C)c3c(=O)n2-c2ccccc2)c2ncnc(N)c12 [Compound 301]
< 100		< 10000	Cc1cccc2cc(C(C)Nc3ncnc4[nH]cnc34)n(CCN3CCOCC3)c(=O)c12 (stereo not shown) [Compound 232]
< 10000		< 10000	Cc1cccc2cc([C@@H](C)Nc3ncnc4[nH]cnc34)n(-c3ccccc3)c(=O)c12 [Compound 195]
< 100			CCn1c(Cn2nc(-c3cccc(O)c3)c3c(N)ncnc32)cc2cccc(C)c2c1=O [Compound 126]
< 100		< 1000	Cc1cccc2cc(Cn3nc(I)c4c(N)ncnc43)n(-c3ccccc3F)c(=O)c12 [Compound 2]
< 100			CC(C)n1c(Cn2nc(-c3cc(O)cc(F)c3)c3c(N)ncnc32)cc2cccc(Cl)c2c1=O [Compound 138]
< 10000		< 10000	Cc1cccnc1-n1c(Cn2nc(I)c3c(N)ncnc32)cc2ccccc2c1=O [Compound 92]
< 10000		> 10000	Cc1cccc2cc(Cn3cnc4c(N)ncnc43)n(-c3ccccc3F)c(=O)c12 [Compound 1]
	< 10000		Cc1cccc2cc(C(C)Nc3ncnc4[nH]cnc34)n(-c3ccccc3F)c(=O)c12 (stereo not shown) [Compound 203]
< 1000			Cc1cccc2cc(Cn3nc(-c4cn[nH]c4)c4c(N)ncnc43)n(C3CCN(C)CC3)c(=O)c12 [Compound 226]
< 10000			CC(C)n1c(Cn2nc(I)c3c(N)ncnc32)cc2ccccc2c1=O [Compound 129]

Structure (SMILES)	IC50 (PI3K δ) [nM]	IC50 (PI3K α) [nM]	IC50 (PI3K γ) [nM]
CNC(=O)c1nn(Cc2cc3cccc(C)c3c(=O)n2-c2ccccc2C)c2ncnc(N)c12 [Compound 305]	< 10000		< 10000
Cc1cccc2cc(Cn3nc(C(N)=O)c4c(N)ncnc43)n(-c3ccccc3)c(=O)c12 [Compound 307]	< 1000		< 10000
CNC(=O)c1nn(Cc2cc3cccc(C)c3c(=O)n2-c2ccccc2)c2ncnc(N)c12 [Compound 309]	< 1000	> 10000	< 10000
Cc1ccccc1-n1c(Cn2nc(C(=O)O)c3c(N)ncnc32)cc2cccc(C)c2c1=O [Compound 297]	< 1000		
Cc1cccc2cc(Cn3nc(C#CC4CC4)c4c(N)ncnc43)n(-c3ccccc3F)c(=O)c12 [Compound 4]	< 1000		> 10000
